Results as given in publication PMC9452538, “The antimicrobial peptide LI14 combats multidrug-resistant bacterial infections” (Communications Biology, 2022).
Values after ≈ are worked out from the molar mass of the structure shown. Like-named read-outs stand apart in the source and are kept apart here. Peptide text beside a SMILES is read from it.

Key:
[1] = test system: S. aureus ATCC 29213, MRSA T144, E. coli ATCC 25922, E. coli B2; assay: Time-killing assay; type: cell-based; conditions: MHB
Description: Bacteria from the exponential phase were diluted into MHB at 1:1,000, and bacteria suspensions (~10^5 CFUs/mL for Gram-positive bacteria, ~10^6 CFUs/mL for Gram-negative bacteria) were mixed with various concentrations of LI14 peptide and incubated at 37 °C for 0.5, 1, 2, 4, and 12 h, respectively. At intervals, samples were serially diluted ten-fold and plated on MHA plates. The amount of primary CFUs/mL was determined after overnight incubation of bacterial colonies.

[2] = test system: P. cibarius HNCF44W (blaNDM-1 + tet(X6)); assay: organism not typed; type: cell-based
How it was run: (§1)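 Bacteria are grown to exponential phase, diluted 1:1000 in MHB, then combined at 1.5 × 10^6 CFUs/mL with different peptide concentrations. MICs follow standard CLSI2021 broth micro-dilution.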

MRSA T144 persisters = assay: Bactericidal activity against persisters; type: cell-based, Staphylococcus aureus; conditions: within 2 h
Description: (§2) Briefly, the bacteria suspensions after washing were exposed to 50-fold MIC concentrations of vancomycin and tigecycline, respectively, and co-incubation for 4 h to obtain persister cells. […] Subsequently, the primary CFUs/mL were calculated.

E. faecalis 1F-1 = assay: microbe, parasite or virus in culture; type: cell-based; conditions: 1F-1
How it was run: as §1

[3] = test system: E. faecalis A4 (VRE, VanA); assay: microbe, parasite or virus in culture; type: cell-based; conditions: A4 (VRE, VanA)
How it was run: as §1

[4] = test system: S. enteritidis ATCC 13076; assay: microbe, parasite or virus in culture; type: cell-based; conditions: ATCC 13076
How it was run: as §1

E. coli ATCC 25922 = assay: Resistance development study, serial passages; type: cell-based, Escherichia coli; conditions: 80 serial passages at sub-inhibitory concentration (0.5-fold MIC)
Description: The ability of LI14 peptide to induce resistance was studied as previously described. Resistance to the therapeutically important drugs rifampicin and ciprofloxacin was measured using S. aureus ATCC 29213 and E. coli ATCC 25922 as test strains. The middle and final MICs were monitored after eighty such serial passages exposed to the tested medicines (0.5-fold MIC), and the fold change in MIC increase was recorded.

E. faecium 5F-10 = assay: microbe, parasite or virus in culture; type: cell-based, Enterococcus faecium; conditions: 5F-10
How it was run: as §1

E. coli B2 persisters = assay: Bactericidal activity against persisters; type: cell-based, Escherichia coli
Description: as §2

MRSA 1530 = assay: microbe, parasite or virus in culture; type: cell-based, Staphylococcus aureus; conditions: 1530
How it was run: as §1

MRSA 1518 = assay: microbe, parasite or virus in culture; type: cell-based, Staphylococcus aureus; conditions: 1518
How it was run: as §1

E. coli B2 [5] = type: cell-based, Escherichia coli; conditions: E. coli B2
Description: MRSA T144 and E. coli B2 in the exponential growth phase were incubated with LI14 peptide supplemented with 10 mM Na^+, K^+, Mg^2+, 10% Dulbecco’s modified Eagle medium (DMEM), and 10% fetal bovine serum (FBS) for 16–18 h. The stability of LI14 was evaluated by the change of its antibacterial activity under different conditions.
LI14 were preincubated for 1 h at various temperatures (40–121 °C), pH (2–12), and proteases (pepsin, trypsin, and papain, final concentration 1 mg/mL). […] Following the incubation with the proteases, the leftover protease was precipitated with acetonitrile and removed by centrifugation at 3000 × g, followed by a MIC test.
Supplementary Table 4 Thermal, pH, salts and protease stability of AMPs against
MRSA T144 and E. coli B2 (MIC, μg/mL).
Treatment MRSA T144 E. coli B2

CD-1 mice = type: in vivo; conditions: 10 mg/kg i.p. daily for 6 days, n = 4
Description: LI14 (10 mg/kg, body weight) was intra-peritoneally injected into CD-1 mice (n = 4 biologically independent animals per group) every day for 6 days[64]. Mice were weighed daily and the behaviors of the mice were inspected for one week. Blood from mice was collected on the seventh day for whole-blood cell analysis and kidney chemistry profile. At the same time, the heart, liver, spleen, lung, and kidney of mice were collected for H.E. staining.
Supplementary Fig. 5 In vivo toxicity assessment of LI14 peptide.
(a) Scheme of the LI14 peptide toxicity study in mice. CD-1 female mice (n = 4 biologically independent animals per group) were intraperitoneally administered with LI14 (10 mg/kg) daily […]. (b-e) Body weight (b), whole-blood cell profiles (c), serum biochemical […]
(1 picture or pasted object on this page, not shown here)

P. aeruginosa PA14 = assay: microbe, parasite or virus in culture; type: cell-based, Pseudomonas aeruginosa; conditions: PA14
How it was run: as §1

E. coli B2 [6] = assay: Galleria mellonella infection model; type: in vivo; conditions: E. coli B2 infected G. mellonella; 50 mg/kg of LI14 at 1 h after infection; 7 days; n = 8
Description: Galleria mellonella larvae (supplied by Huiyude Biotech Company, Tianjin, China) were separated into six groups (n = 8 biologically independent animals per group) and infection models by injecting MRSA T144 and E. coli B2 cultures, respectively (10 µL, 1.0 × 10^5 CFUs per larvae) into the right posterior gastropoda[42],[48]. The infected larvae were treated by giving LI14 peptide (10, 20, 50 mg/kg), ampicillin/rifampicin (10 mg/kg) or a mixture of LI14 with ampicillin/rifampicin (10 + 10 mg/kg) in the left posterior gastropoda after 1 h infection, with the PBS injection group serving as a control treatment. Within 7 days, survival rates of Galleria mellonella larvae were inspected and recorded.

For CC[C@H](C)[C@H](NC(=O)[C@H](CCCNC(=N)N)NC(=O)[C@H](CS)NC(=O)[C@H](CC(C)C)NC(=O)[C@H](CCCCN)NC(=O)[C@H](CCCCN)NC(=O)[C@H](CC(C)C)NC(=O)[C@@H](NC(=O)[C@H](CCCNC(=N)N)NC(=O)[C@H](CS)NC(=O)[C@H](CC(C)C)NC(=O)[C@H](CCCCN)NC(=O)[C@H](CCCCN)NC(=O)[C@@H](N)CC(C)C)[C@@H](C)CC)C(N)=O [LI14] (H-LKKLCRILKKLCRI-NH2), the “Killing of the tested strains at 12 h” value ([1]; 8 μg/mL LI14, three tested strains, except for MRSA T144) was “completely eliminate”, the “Time to eliminate all E. coli strains” value ([1]; 32 μg/mL LI14, ~10^6 CFUs/mL, 37 °C) was at most 0.5 h and the MIC [2] was 8 mg/L (≈ 4.63 µM). For the same compound, the “Clearance rate against persisters” value (MRSA T144 persisters) was “above 99%”, the MIC (E. faecalis 1F-1) was 64 mg/L (≈ 37.1 µM) and the MIC [3] was 8 mg/L (≈ 4.63 µM). The MIC [4] was 8 mg/L (≈ 4.63 µM), the “Increase in MIC after serial passages” value (E. coli ATCC 25922) was 8 fold and the MIC (E. faecium 5F-10) was 64 mg/L (≈ 37.1 µM). The “Removal rate of persisters” value (E. coli B2 persisters; 128 μg/mL of LI14) was “more than 99%”, the “Clearance rate against persisters” value (E. coli B2 persisters; within 2 h) was “above 99%” and the MIC (MRSA 1530) was 64 mg/L (≈ 37.1 µM). It also gave an MIC (MRSA 1518) of 64 mg/L (≈ 37.1 µM), an MIC (E. coli B2 [5]; Control) of 4 mg/L (≈ 2.32 µM) and an MIC (E. coli B2 [5]; KCl 10 mM) of 4 mg/L (≈ 2.32 µM). It also gave an MIC (E. coli B2 [5]; NaCl 10 mM) of 4 mg/L (≈ 2.32 µM), an MIC (E. coli B2 [5]; Serum (10%), fetal bovine serum) of 4 mg/L (≈ 2.32 µM) and an MIC (E. coli B2 [5]; peptide preincubated 1 h at 40℃) of 4 mg/L (≈ 2.32 µM). It also gave an MIC (E. coli B2 [5]; peptide preincubated 1 h at 60℃) of 4 mg/L (≈ 2.32 µM), an MIC (E. coli B2 [5]; peptide preincubated 1 h at 80℃) of 4 mg/L (≈ 2.32 µM) and an MIC (E. coli B2 [5]; peptide preincubated 1 h at 121℃) of 4 mg/L (≈ 2.32 µM). For the same compound, the MIC (E. coli B2 [5]; peptide preincubated 1 h at pH 2, readjusted to pH 7.2) was 4 mg/L (≈ 2.32 µM), the MIC (E. coli B2 [5]; peptide preincubated 1 h at pH 4, readjusted to pH 7.2) was 4 mg/L (≈ 2.32 µM) and the MIC (E. coli B2 [5]; peptide preincubated 1 h at pH 6, readjusted to pH 7.2) was 4 mg/L (≈ 2.32 µM). For the same compound, the MIC (E. coli B2 [5]; peptide preincubated 1 h at pH 8, readjusted to pH 7.2) was 4 mg/L (≈ 2.32 µM), the MIC (E. coli B2 [5]; peptide preincubated 1 h at pH 10, readjusted to pH 7.2) was 4 mg/L (≈ 2.32 µM) and the MIC (E. coli B2 [5]; peptide preincubated 1 h at pH 12, readjusted to pH 7.2) was 4 mg/L (≈ 2.32 µM). The “Behavior and body weight” value (CD-1 mice) was “did not observe murine behavior changes or body weight loss”, the “H.E. staining of heart, liver, spleen, lung, kidney” value (CD-1 mice) was “no significant difference in histological morphology” and the “Whole-blood cell profiles and serum biochemical index” value (CD-1 mice) was “no significant difference compared with the control group”. The MIC (P. aeruginosa PA14) was 16 mg/L (≈ 9.26 µM) and the “Survival rate of larvae” value (E. coli B2 [6]) was 75%.
